From patent publication US6015809A (priority 1999, dated 2000) come the findings set out here.

The structures appear in SMILES notation. Values after ≈ are worked out from the molar mass of the structure shown. Where two headings read alike, the source gives them in different places.

Common to all, as to experiment: Antifungal activity, MIC microdilution
Common to all, as to type: cell-based

Assay [1] concerns Candida tropicalis. The settings on record: RPMI 1640, 35° C., 24-48 hours. On the procedure:
(§1) Antifungal activity for the compounds of this invention was established by evaluating a representative compound of this invention (Compound I) against several strains of fungi. Briefly the following procedure was used to evaluate such activity. A 96 U-bottom microtiter plate was filled (50 μl/well) with RPMI 1640. The compounds to be evaluated were placed in appropriate wells, and serial diluted in successive wells to provide 11 dilutions. The concentrations ranged from 64 through 0.06 μg/ml. An adjusted inoculum of fungi (50 μl) was added to each well and the plates were incubated at 35° C. for 24-48 hours.

Assay [2] concerns Filobasidiella neoformans. The settings on record: strain ATCC 7472, RPMI 1640, 35° C., 24-48 hours. As to the method:
as §1

Assay [3] has as its system Candida glabrata. Particulars: strain ATCC 90030, RPMI 1640, 35° C., 24-48 hours. On the procedure:
as §1

Assay [4] relates to Candida krussii. Particulars: strain 94-2, RPMI 1640, 35° C., 24-48 hours. As to the method:
as §1

Assay [5] has as its system Cryptococcus neoformans. The settings on record: strain ATCC 90112, RPMI 1640, 35° C., 24-48 hours. As to the method: as §1
In assay [6] the test system is Candida parapsilosis. Particulars: RPMI 1640, 35° C., 24-48 hours. As to the method:
as §1

Assay [7] relates to Aspergillus fumigatus. Particulars: strain ATCC 26933, RPMI 1640, 35° C., 24-48 hours. As to the method:
as §1

Assay [8] deals with Aspergillus flavus. On the procedure: (§2) Briefly the following procedure was used to evaluate such activity. A 96 U-bottom microtiter plate was filled (50 μl/well) with RPMI 1640. The compounds to be evaluated were placed in appropriate wells, and serial diluted in successive wells to provide 11 dilutions. The concentrations ranged from 64 through 0.06 μg/ml. An adjusted inoculum of fungi (50 μl) was added to each well and the plates were incubated at 35° C. for 24-48 hours.

The subject of assay [9] is Candida rugosa. The settings on record: strain 94-10, RPMI 1640, 35° C., 24-48 hours. On the procedure:
as §2

Assay [10] has as its system Candida zeylanoided. Particulars: strain 94-15, RPMI 1640, 35° C., 24-48 hours. As to the method: as §2
Assay [11] concerns Candida lusitaniae. Particulars: Clavispora lusitaniae; strain 94-3; RPMI 1640, 35° C., 24-48 hours; read-out: MIC. On the procedure: as §2
The test system of assay [12] is Aspergillus niger. Particulars: strain S-430, RPMI 1640, 35° C., 24-48 hours. As to the method: as §2
For assay [13], the system named is Candida albicans. The settings on record: RPMI 1640, 35° C., 24-48 hours. As to the method: as §2
Assay [14] relates to Candida pseudotropicalis. The settings on record: strain ATCC 28838, RPMI 1640, 35° C., 24-48 hours. As to the method:
as §2

Assay [15] relates to Saccharomyces cerevisiae. As to the method: as §2
Setting [16] is: Candida tropicalis, strain 94-14, read-out: MIC.
The mark [17] stands for this setting: Cryptococcus neoformans, ATCC7472, read-out: MIC.
Where [18] appears, read: Nakaseomyces glabratus, ATCC90030, read-out: MIC.
[19] abbreviates: Cryptococcus neoformans, ATCC90112, read-out: MIC.
The mark [20] stands for this setting: Lodderomyces parapsilosis, ATCC90018, strain ATCC 90018, read-out: MIC.
Where [21] appears, read: Lodderomyces parapsilosis, strain 94-8, read-out: MIC.
[22] abbreviates: Lodderomyces parapsilosis, strain 94-9, read-out: MIC.
The mark [23] stands for this setting: Aspergillus fumigatus, ATCC26933, read-out: MIC.
[24] abbreviates: Aspergillus flavus, ATCC12963, strain ATCC 12963, RPMI 1640, 35° C., 24-48 hours, read-out: MIC.
The mark [25] stands for this setting: Aspergillus niger, read-out: MIC.
Where [26] appears, read: Kluyveromyces marxianus, ATCC28838, read-out: MIC.
Where [27] appears, read: Candida albicans, ATCC90028, strain ATCC 90028.
Setting [28] is: Saccharomyces cerevisiae, ATCC2601, strain ATCC 2601, RPMI 1640, 35° C., 24-48 hours, read-out: MIC.

In general, MIC refers to the lowest concentration found to suppress growth. With `CC1C=CC=CC=CC=CC=CC=CC=CC(OC2OC(C)C(O)C(N)C2O)CC2OC(O)(CC(O)CC(O)C(O)CCC(O)CC(O)CC(=O)OC(C)C(C)C1O)CC(O)C2C(=O)O` (stereo not drawn) [Amphtericin B], the MIC in [1] (setting [16]) is 0.25 µg/mL (≈ 0.271 µM); in assay [1] (strain 94-13), 0.25 µg/mL (≈ 0.271 µM); in [2] (setting [17]), 0.12 µg/mL (≈ 0.13 µM); in assay [3] (setting [18]), 0.25 µg/mL (≈ 0.271 µM); in [4] (Candida, read-out: MIC), 0.5 µg/mL (≈ 0.541 µM); in assay [5] (setting [19]), at most 0.12 µg/mL. Besides, the MIC was at most 0.12 µg/mL in [6] (setting [20]); 0.25 µg/mL (≈ 0.271 µM) in assay [6] (setting [21]); 0.5 µg/mL (≈ 0.541 µM) in [6] (setting [22]); 0.25 µg/mL (≈ 0.271 µM) in [7] (setting [23]); 2 µg/mL (≈ 2.16 µM) in assay [8] (setting [24]); 0.25 µg/mL (≈ 0.271 µM) in assay [9] (Diutina rugosa, read-out: MIC). In addition, the MIC in assay [10] (Candida, read-out: MIC) was 0.25 µg/mL (≈ 0.271 µM); in [11], at most 0.12 µg/mL; in assay [12] (setting [25]) it was 0.25 µg/mL (≈ 0.271 µM); in assay [13] (Candida albicans, ATCC90028, strain ATCC 90028, read-out: MIC), 0.25 µg/mL (≈ 0.271 µM); in assay [13] (Candida albicans, strain 94-1, read-out: MIC), at most 0.12 µg/mL; in assay [13] (Candida albicans, strain 1063, read-out: MIC) it was 0.25 µg/mL (≈ 0.271 µM). Moreover, the MIC in assay [13] (Candida albicans, strain 1117, read-out: MIC) was 0.25 µg/mL (≈ 0.271 µM); in assay [13] (Candida albicans, strain C-83, read-out: MIC), 0.25 µg/mL (≈ 0.271 µM); in assay [14] (setting [26]), 0.25 µg/mL (≈ 0.271 µM); in [15] (Saccharomyces cerevisiae, ATCC2601), at most 0.12 µg/mL.

As for `OC(Cn1cncn1)(Cn1cncn1)c1ccc(F)cc1F` [Fluconazole], the MIC in assay [1] (setting [16]) is at least 16 µg/mL; in [1] (strain 94-13), at least 16 µg/mL; in [2] (setting [17]) it was 16 µg/mL (≈ 52.2 µM); in assay [3] (setting [18]), 4 µg/mL (≈ 13.1 µM); in assay [4] (Candida, read-out: MIC) it was at least 16 µg/mL; in [5] (setting [19]), 8 µg/mL (≈ 26.1 µM). Also, the MIC in assay [6] (setting [20]) is 0.5 µg/mL (≈ 1.63 µM); in [6] (setting [21]), 0.5 µg/mL (≈ 1.63 µM); in [6] (setting [22]), 0.5 µg/mL (≈ 1.63 µM); in assay [7] (setting [23]), over 16 µg/mL; in assay [8] (setting [24]) it was over 16 µg/mL; in assay [9] (Diutina rugosa, read-out: MIC) it was 2 µg/mL (≈ 6.53 µM). Further, the MIC was at least 16 µg/mL in assay [10] (Candida, read-out: MIC); 1 µg/mL (≈ 3.27 µM) in assay [11]; over 16 µg/mL in assay [12] (setting [25]); at least 16 µg/mL in assay [13] (setting [27]); at least 16 µg/mL in [13] (Candida albicans, strain 94-1); 4 µg/mL (≈ 13.1 µM) in assay [13] (Candida albicans, strain 1063). In addition, the MIC in [13] (Candida albicans, strain 1117) is 8 µg/mL (≈ 26.1 µM); in assay [13] (Candida albicans, strain C-83), at least 16 µg/mL; in assay [14] (setting [26]), at most 0.12 µg/mL; in assay [15] (setting [28]), 8 µg/mL (≈ 26.1 µM).

Regarding `Clc1ccc(COC(Cn2ccnc2)c2ccc(Cl)cc2Cl)c(Cl)c1` (stereo not drawn) [Miconazole], the MIC in [1] (setting [16]) is 4 µg/mL (≈ 9.61 µM); in [1] (strain 94-13), 4 µg/mL (≈ 9.61 µM); in assay [2] (setting [17]), 0.25 µg/mL (≈ 0.601 µM); in [3] (setting [18]), at most 0.12 µg/mL; in assay [4] (Candida, read-out: MIC), 2 µg/mL (≈ 4.81 µM); in assay [5] (setting [19]) it was at most 0.12 µg/mL. The MIC is at most 0.12 µg/mL in [6] (setting [20]); 0.25 µg/mL (≈ 0.601 µM) in assay [6] (setting [21]); 0.5 µg/mL (≈ 1.2 µM) in assay [6] (setting [22]); 1 µg/mL (≈ 2.4 µM) in assay [7] (setting [23]); 0.5 µg/mL (≈ 1.2 µM) in assay [8] (Aspergillus flavus, ATCC12963); at most 0.12 µg/mL in assay [9] (Diutina rugosa, read-out: MIC). Moreover, the MIC is 0.25 µg/mL (≈ 0.601 µM) in assay [10] (Candida, read-out: MIC); at most 0.12 µg/mL in assay [11]; 4 µg/mL (≈ 9.61 µM) in assay [12] (setting [25]); 0.5 µg/mL (≈ 1.2 µM) in assay [13] (setting [27]); 8 µg/mL (≈ 19.2 µM) in [13] (Candida albicans, strain 94-1); 1 µg/mL (≈ 2.4 µM) in [13] (Candida albicans, strain 1063). The MIC was 1 µg/mL (≈ 2.4 µM) in [13] (Candida albicans, strain 1117); 8 µg/mL (≈ 19.2 µM) in [13] (Candida albicans, strain C-83); at most 0.12 µg/mL in [14] (setting [26]); at most 0.12 µg/mL in assay [15] (setting [28]).

Regarding `C[C@@H]1[C@H](O)[C@@H](C)/C=C/C=C/CC/C=C/C=C/C=C/C=C/C(O[C@H]2O[C@H](C)[C@@H](O)[C@H](N)[C@@H]2O)CC2O[C@](O)(CC(O)C(O)CCC(O)CC(O)CC(O)CC(=O)O[C@H]1C)CC(O)C2C(=O)O` (stereo partly drawn) [Nystatin], the MIC worked out at 1 µg/mL (≈ 1.08 µM) in [1] (strain 94-13); 2 µg/mL (≈ 2.16 µM) in [1] (strain 94-14); 0.5 µg/mL (≈ 0.54 µM) in assay [2]; 1 µg/mL (≈ 1.08 µM) in assay [3]; 2 µg/mL (≈ 2.16 µM) in assay [4]; 0.5 µg/mL (≈ 0.54 µM) in assay [5]. Moreover, the MIC in [6] (strain 94-8) is 1 µg/mL (≈ 1.08 µM); in assay [6] (strain 94-9), 1 µg/mL (≈ 1.08 µM); in [6] (strain ATCC 90018), 1 µg/mL (≈ 1.08 µM); in assay [7] it was 1 µg/mL (≈ 1.08 µM); in [8] (strain ATCC 12963, RPMI 1640, 35° C., 24-48 hours) it was at least 16 µg/mL; in assay [9], 2 µg/mL (≈ 2.16 µM). The MIC in assay [10] is 1 µg/mL (≈ 1.08 µM); in assay [12], 4 µg/mL (≈ 4.32 µM); in [13] (strain 94-1), 2.0 µg/mL (≈ 2.16 µM); in [13] (strain 1063) it was 2 µg/mL (≈ 2.16 µM); in assay [13] (strain 1117), 1 µg/mL (≈ 1.08 µM); in assay [13] (strain ATCC 90028), 1 µg/mL (≈ 1.08 µM). Also, the minimum inhibitory concentration (MIC) in assay [13] (strain C-83) came out at 2 µg/mL (≈ 2.16 µM); in assay [14] it was 1 µg/mL (≈ 1.08 µM); in assay [15] (strain ATCC 2601, RPMI 1640, 35° C., 24-48 hours), 2 µg/mL (≈ 2.16 µM).
